Data from PubChem BioAssay (NCI).
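GI50 = concentration required for 50% inhibition of growth. TGI: total growth inhibition.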

Experiments:
Test in all cases: NCI anticancer screen, dose series, 384-well format
SK-MEL-5 melanoma = system: SK-MEL-5 melanoma
SK-OV-3 ovarian = system: SK-OV-3 ovarian
MOLT-4 leukemia = system: MOLT-4 leukemia
NCI-H226 lung = system: NCI-H226 lung
HOP-92 NSCLC = system: HOP-92 NSCLC
MALME-3M melanoma = system: MALME-3M melanoma
CCRF-CEM leukemia = system: CCRF-CEM leukemia
SK-MEL-28 melanoma = system: SK-MEL-28 melanoma
MDA-MB-468 breast = system: MDA-MB-468 breast
HT29 colon = system: HT29 colon
RXF 393 renal = system: RXF 393 renal
A549 NSCLC = system: A549 NSCLC
SNB-75 CNS = system: SNB-75 CNS
OVCAR-4 ovarian = system: OVCAR-4 ovarian
HCC-2998 colon = system: HCC-2998 colon
MCF7 breast = system: MCF7 breast
SF-268 CNS = system: SF-268 CNS
DU-145 prostate = system: DU-145 prostate
U251 glioblastoma = system: U251 glioblastoma
RPMI-8226 leukemia = system: RPMI-8226 leukemia
SF-539 CNS = system: SF-539 CNS
OVCAR-8 ovarian = system: OVCAR-8 ovarian
COLO 205 colon = system: COLO 205 colon
HOP-62 NSCLC = system: HOP-62 NSCLC
HCT-15 colon = system: HCT-15 colon
SF-295 CNS = system: SF-295 CNS
PC-3 prostate = system: PC-3 prostate
HL-60(TB) leukemia = system: HL-60(TB) leukemia
BT-549 breast = system: BT-549 breast
NCI-H522 lung = system: NCI-H522 lung
MDA-MB-435 melanoma = system: MDA-MB-435 melanoma
A498 renal = system: A498 renal
NCI/ADR-RES ovarian = system: NCI/ADR-RES ovarian
SNB-19 CNS = system: SNB-19 CNS
TK-10 renal = system: TK-10 renal
EKVX NSCLC = system: EKVX NSCLC
OVCAR-5 ovarian = system: OVCAR-5 ovarian
CAKI-1 renal = system: CAKI-1 renal
SN12C renal = system: SN12C renal
KM12 colon = system: KM12 colon
UACC-62 melanoma = system: UACC-62 melanoma
MDA-MB-231 breast = system: MDA-MB-231 breast
786-0 renal = system: 786-0 renal
ACHN renal = system: ACHN renal
NCI-H23 lung = system: NCI-H23 lung
OVCAR-3 ovarian = system: OVCAR-3 ovarian
NCI-H322M lung = system: NCI-H322M lung
SW-620 colon = system: SW-620 colon
T-47D breast = system: T-47D breast
IGROV1 ovarian = system: IGROV1 ovarian
HS 578T breast = system: HS 578T breast
SK-MEL-2 melanoma = system: SK-MEL-2 melanoma
NCI-H460 NSCLC = system: NCI-H460 NSCLC
SR leukemia = system: SR leukemia
UACC-257 melanoma = system: UACC-257 melanoma
M14 melanoma = system: M14 melanoma

Structure (SMILES): CN(C)CCN1C(=O)c2cccc3cc(N)cc(c23)C1=O
- GI50 (SK-MEL-5 melanoma): 1.96 µM
- TGI (SK-MEL-5 melanoma): 3.53 µM
- GI50 (SK-OV-3 ovarian): 2.12 µM
- TGI (SK-OV-3 ovarian): 6.21 µM
- GI50 (MOLT-4 leukemia): 0.242 µM
- TGI (MOLT-4 leukemia): 0.572 µM
- GI50 (NCI-H226 lung): 2.02 µM
- TGI (NCI-H226 lung): 4.05 µM
- GI50 (HOP-92 NSCLC): 2.49 µM
- TGI (HOP-92 NSCLC): 6.89 µM
- GI50 (MALME-3M melanoma): 2.2 µM
- TGI (MALME-3M melanoma): 4.92 µM
- GI50 (CCRF-CEM leukemia): 1 µM
- TGI (CCRF-CEM leukemia): 2.19 µM
- GI50 (SK-MEL-28 melanoma): 4.01 µM
- TGI (SK-MEL-28 melanoma): 8.86 µM
- GI50 (MDA-MB-468 breast): 1.88 µM
- TGI (MDA-MB-468 breast): 4.73 µM
- GI50 (HT29 colon): 2.5 µM
- TGI (HT29 colon): 6.43 µM
- GI50 (RXF 393 renal): 2.47 µM
- TGI (RXF 393 renal): 6.06 µM
- GI50 (A549 NSCLC): 1.17 µM
- TGI (A549 NSCLC): 3.64 µM
- GI50 (SNB-75 CNS): 1.35 µM
- TGI (SNB-75 CNS): 4.62 µM
- GI50 (OVCAR-4 ovarian): 2.62 µM
- TGI (OVCAR-4 ovarian): 5.94 µM
- GI50 (HCC-2998 colon): 2.01 µM
- TGI (HCC-2998 colon): 5.47 µM
- GI50 (MCF7 breast): 2.92 µM
- TGI (MCF7 breast): 16.3 µM
- GI50 (SF-268 CNS): 3.06 µM
- TGI (SF-268 CNS): 8.24 µM
- GI50 (DU-145 prostate): 2.28 µM
- TGI (DU-145 prostate): 14.2 µM
- GI50 (U251 glioblastoma): 2.38 µM
- TGI (U251 glioblastoma): 5.62 µM
- GI50 (RPMI-8226 leukemia): 1.4 µM
- TGI (RPMI-8226 leukemia): 2.82 µM
- GI50 (SF-539 CNS): 2.22 µM
- TGI (SF-539 CNS): 6.64 µM
- GI50 (OVCAR-8 ovarian): 1.8 µM
- TGI (OVCAR-8 ovarian): 3.63 µM
- GI50 (COLO 205 colon): 1.98 µM
- TGI (COLO 205 colon): 5.32 µM
- GI50 (HOP-62 NSCLC): 1.5 µM
- TGI (HOP-62 NSCLC): 3.65 µM
- GI50 (HCT-15 colon): 2.56 µM
- TGI (HCT-15 colon): 8.07 µM
- GI50 (SF-295 CNS): 2.77 µM
- TGI (SF-295 CNS): 12.1 µM
- GI50 (PC-3 prostate): 3.49 µM
- TGI (PC-3 prostate): 11.3 µM
- GI50 (HL-60(TB) leukemia): 1.09 µM
- TGI (HL-60(TB) leukemia): 2.35 µM
- GI50 (BT-549 breast): 2.87 µM
- TGI (BT-549 breast): 7.03 µM
- GI50 (NCI-H522 lung): 1.34 µM
- TGI (NCI-H522 lung): 3.03 µM
- GI50 (MDA-MB-435 melanoma): 3.44 µM
- TGI (MDA-MB-435 melanoma): 12 µM
- GI50 (A498 renal): 1.26 µM
- TGI (A498 renal): 4.62 µM
- GI50 (NCI/ADR-RES ovarian): 2.8 µM
- TGI (NCI/ADR-RES ovarian): 7.79 µM
- GI50 (SNB-19 CNS): 2.16 µM
- TGI (SNB-19 CNS): 6.75 µM
- GI50 (TK-10 renal): 2.34 µM
- TGI (TK-10 renal): 7.61 µM
- GI50 (EKVX NSCLC): 4.87 µM
- TGI (EKVX NSCLC): 19.6 µM
- GI50 (OVCAR-5 ovarian): 2.46 µM
- TGI (OVCAR-5 ovarian): 6.66 µM
- GI50 (CAKI-1 renal): 2.2 µM
- TGI (CAKI-1 renal): 6.36 µM
- GI50 (SN12C renal): 2.53 µM
- TGI (SN12C renal): 11.4 µM
- GI50 (KM12 colon): 2.85 µM
- TGI (KM12 colon): 14.8 µM
- GI50 (UACC-62 melanoma): 1.85 µM
- TGI (UACC-62 melanoma): 3.61 µM
- GI50 (MDA-MB-231 breast): 2.03 µM
- TGI (MDA-MB-231 breast): 5.55 µM
- GI50 (786-0 renal): 3.13 µM
- TGI (786-0 renal): 13.5 µM
- GI50 (ACHN renal): 2.31 µM
- TGI (ACHN renal): 4.44 µM
- GI50 (NCI-H23 lung): 2.45 µM
- TGI (NCI-H23 lung): 5.59 µM
- GI50 (OVCAR-3 ovarian): 4.01 µM
- TGI (OVCAR-3 ovarian): 14 µM
- GI50 (NCI-H322M lung): 4.51 µM
- TGI (NCI-H322M lung): 18.2 µM
- GI50 (SW-620 colon): 3.12 µM
- TGI (SW-620 colon): 12.1 µM
- GI50 (T-47D breast): 2.73 µM
- TGI (T-47D breast): 6.62 µM
- GI50 (IGROV1 ovarian): 3.07 µM
- TGI (IGROV1 ovarian): 16.5 µM
- GI50 (HS 578T breast): 1.42 µM
- TGI (HS 578T breast): 5.1 µM
- GI50 (SK-MEL-2 melanoma): 4.1 µM
- TGI (SK-MEL-2 melanoma): 6.11 µM
- GI50 (NCI-H460 NSCLC): 0.791 µM
- TGI (NCI-H460 NSCLC): 2.27 µM
- GI50 (SR leukemia): 1.38 µM
- TGI (SR leukemia): 2.69 µM
- GI50 (UACC-257 melanoma): 2.68 µM
- TGI (UACC-257 melanoma): 6.03 µM
- GI50 (M14 melanoma): 2.72 µM
- TGI (M14 melanoma): 7.79 µM
